What follows are compounds tested against (Homo sapiens, UniProt P43220) (assay: h-GLP-1 activity assay (cAMP HTRF, HEK293 cells with stable expression of human GLP-1)). Conditions: relative EC50, 10 nM human GLP-1 set as 100% response, 30 min at 37° C.
Type: cell-based
Description: Human GLP-1 agonizing activity was detected in HEK293 cells with stable expression of human GLP-1 by Cisbio cAMP Gs dynamic kit (Catalog #62AM4PEC) according to manufacturer's protocol. Briefly, cells were collected and resuspended in assay buffer containing 0.1% BSA and 0.5 mM of IBMX at concentration to 2.5×10^5 cells/mL. Two μL 5× compound solution and 8 μL cell suspension were added to each well of low-volume 384 white assay plate. After 30 min incubation at 37° C., 5 μL cAMP-d2 working solution and 5 μL anti-cAMP antibody-cryptate were added to each well, and incubate at room temperature for 1 hr. Series dilution of cAMP was used as standard. Human GLP-1 (7-37) was used as positive control and 10 nM human GLP-1 was set as 100% response. HTRF signals were read at 665 and 615 nm with EnVision plate reader and calculated cAMP concentration by interpolation to the standard curve. The EC50 value of the tested compounds was calculated by fitting the dose response curve using a 4-parameter non-linear regression routine and relative EC50 was presented in Table 29.

Chain of (Homo sapiens, UniProt P43220) (P43220 24-463): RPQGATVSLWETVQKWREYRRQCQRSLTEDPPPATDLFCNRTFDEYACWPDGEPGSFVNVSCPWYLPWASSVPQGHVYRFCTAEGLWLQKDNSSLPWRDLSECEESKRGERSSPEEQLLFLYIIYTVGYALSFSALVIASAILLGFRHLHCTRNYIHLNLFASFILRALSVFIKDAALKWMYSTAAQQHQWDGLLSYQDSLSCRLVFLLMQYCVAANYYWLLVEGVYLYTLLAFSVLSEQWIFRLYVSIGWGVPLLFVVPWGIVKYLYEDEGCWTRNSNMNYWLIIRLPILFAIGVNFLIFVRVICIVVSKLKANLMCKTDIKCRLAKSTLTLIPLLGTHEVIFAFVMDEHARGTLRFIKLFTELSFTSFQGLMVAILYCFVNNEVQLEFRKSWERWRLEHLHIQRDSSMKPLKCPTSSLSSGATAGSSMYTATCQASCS

EC50 [µM]	Structure (SMILES)
< 0.02	C[C@@H]1c2c(-n3ccn(-c4ccc5c(cnn5C)c4F)c3=O)c(-c3cc(Cl)c(F)c(Cl)c3)nn2CCN1C(=O)c1cc2cc([C@@H]3CCOC(C)(C)C3)ccc2n1C1(c2noc(=O)[nH]2)CC1 (single isomer, unassigned) [Compound 51]
> 0.1	C[C@H]1c2c(-n3ccn(-c4ccc5c(cnn5C)c4F)c3=O)c(-c3cc(Cl)c(F)c(Cl)c3)nn2CCN1C(=O)c1cc2cc([C@@H]3CCOC(C)(C)C3)ccc2n1C1(c2noc(=O)[nH]2)CC1 (single isomer, unassigned) [Compound 52]
> 0.1	COCC12CCC(n3ccn(-c4c(-c5ccc(F)cc5)nn5c4[C@H](C)N(C(=O)c4cc6cc(C7CCOCC7)ccc6n4Cc4noc(=O)[nH]4)CC5)c3=O)(CC1)CC2 (single isomer, unassigned) [Compound 53]
< 0.02	C[C@H]1c2c(nn(C34CC(C3)C4)c2-n2ccn(-c3ccc4c(cnn4C)c3F)c2=O)CCN1C(=O)c1cc2cc([C@H]3CCOC(C)(C)C3)ccc2n1C1(c2noc(=O)[nH]2)CC1 (single isomer, unassigned) [Compound 60]
0.02 to 0.1	C[C@H]1c2c(nn(C34CC(C3)C4)c2-n2ccn(-c3ccc4c(cnn4C)c3F)c2=O)CCN1C(=O)c1cc2cc([C@@H]3CCOC(C)(C)C3)ccc2n1C1(c2noc(=O)[nH]2)CC1 (single isomer, unassigned) [Compound 61]
0.02 to 0.1	COCC12CCC(n3ccn(-c4c(-c5ccc(F)cc5)nn5c4[C@H](C)N(C(=O)c4cc6cc([C@@H]7CCOC(C)(C)C7)ccc6n4[C@@]4(c6noc(=O)[nH]6)C[C@@H]4C)CC5)c3=O)(CC1)CC2 (single isomer, unassigned) [Compound 62]
> 0.1	COCC12CCC(n3ccn(-c4c(-c5ccc(F)cc5)nn5c4[C@H](C)N(C(=O)c4cc6cc([C@H]7CCOC(C)(C)C7)ccc6n4[C@@]4(c6noc(=O)[nH]6)C[C@@H]4C)CC5)c3=O)(CC1)CC2 (single isomer, unassigned) [Compound 63]
< 0.02	C[C@H]1c2c(-n3ccn(-c4ccc5c(cnn5C)c4F)c3=O)c(-c3ccc(F)c(C(F)(F)F)c3)nn2CCN1C(=O)c1cc2cc([C@@H]3CCOC(C)(C)C3)ccc2n1C1(c2noc(=O)[nH]2)CC1 (single isomer, unassigned) [Compound 65]
> 0.1	C[C@@H]1c2c(-n3ccn(-c4ccc5c(cnn5C)c4F)c3=O)c(-c3ccc(F)c(C(F)(F)F)c3)nn2CCN1C(=O)c1cc2cc([C@@H]3CCOC(C)(C)C3)ccc2n1C1(c2noc(=O)[nH]2)CC1 (single isomer, unassigned) [Compound 66]
< 0.02	C[C@H]1c2c(nn(-c3ccc(F)c(Cl)c3)c2-n2ccn(-c3ccc4c(cnn4C)c3F)c2=O)CCN1C(=O)c1cc2cc([C@@H]3CCOC(C)(C)C3)ccn2c1C1(c2noc(=O)[nH]2)CC1 (single isomer, unassigned) [Compound 67]
< 0.02	Cc1cc(-c2nn3c(c2-n2ccn(-c4ccc5c(cnn5C)c4F)c2=O)[C@@H](C)N(C(=O)c2cc4cc([C@@H]5CCOC(C)(C)C5)ccn4c2C2(c4noc(=O)[nH]4)CC2)CC3)cc(C)c1F (single isomer, unassigned) [Compound 68]
< 0.02	Cc1cc(-c2nn3c(c2-n2ccn(-c4ccc5c(cnn5C)c4F)c2=O)[C@@H](C)N(C(=O)c2cn4cc([C@@H]5CCOC(C)(C)C5)ccc4c2C2(c4noc(=O)[nH]4)CC2)CC3)cc(C)c1F (single isomer, unassigned) [Compound 69]
< 0.02	C[C@H]1c2c(nn(-c3ccc(F)c(F)c3)c2-n2ccn(-c3ccc4c(cnn4C)c3F)c2=O)CCN1C(=O)c1cn2cc([C@@H]3CCOC(C)(C)C3)ccc2c1C1(c2noc(=O)[nH]2)CC1 (single isomer, unassigned) [Compound 70]
< 0.02	C[C@H]1c2c(nn(-c3ccc(F)c(C(F)(F)F)c3)c2-n2ccn(-c3ccc4c(cnn4C)c3F)c2=O)CCN1C(=O)c1cn2cc([C@@H]3CCOC(C)(C)C3)ccc2c1C1(c2noc(=O)[nH]2)CC1 (single isomer, unassigned) [Compound 71]

From US12037339B2, “Substituted imidazoles as GLP-1 receptor agonists” (Eccogene Inc., priority 2020, dated 2024)
